Experimental data from the supplement of paper PMC4862054.

Each compound was assayed on HCC1937 (assay: normalised response (% of control), CellTox Green; higher = less cell death (100 = DMSO, 0 = benzethonium chloride kill control)). Conditions: incubation time: 72 h.
Summary of the method: (§1)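 Two readouts were taken after 72 h: CellTox Green fluorescence (485/520 nm) first, then CellTiter-Glo luminescence after 10 min at room temperature. Breast cancer cell lines had been seeded as 20 µl suspension into 384-well plates holding compound at 5 concentrations in 10-fold steps across a compound-specific 10,000-fold range. Each value is a normalised signal at a single concentration, with plates scaled to 0.1 % DMSO (100) and a positive kill control (0).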

Compound | normalised response
CC(=O)OC[C@H]1O[C@@H]([S-])[C@H](OC(C)=O)[C@@H](OC(C)=O)[C@@H]1OC(C)=O.CCP(CC)CC.[Au+] [Auranofin] (2500 nM) | 1.35%
CS(=O)(=O)N1CCN(Cc2cc3nc(-c4cccc5[nH]ncc45)nc(N4CCOCC4)c3s2)CC1 [Pictilisib] (10000 nM) | 91.4%
O=C(NC[C@H](O)CO)c1ccncc1Nc1ccc(I)cc1F [Pimasertib] (10000 nM) | 91%
c1cc(CN2CCCNCCNCCCNCC2)ccc1CN1CCCNCCNCCCNCC1 [Plerixafor] (10000 nM) | 104%
Cn1cc(CNCC2CCN(c3ncc(C(=O)NO)cn3)CC2)c2ccccc21 [Quisinostat] (1000 nM) | 82%
CC[C@@]1(O)C(=O)OCc2c1cc1n(c2=O)Cc2cc3c(CN(C)C)c(O)ccc3nc2-1 [Topotecan] (10000 nM) | 18.6%

Each compound was assayed on HDQ-P1 in the same assay as above. Conditions: incubation time: 72 h.
Summary of the method: as §1

Compound | normalised response
Cc1c(Cn2c(C)nc3c(C(=O)O)cc(N4CCOCC4)cc32)cccc1C(F)(F)F (10000 nM) | 112%
CCCCC/C=C/C=C1/C(=O)C=C[C@@H]1C/C=C\CCCC(=O)O [15D-PGJ2] (800 nM) | 82.9%
CC(=O)OC[C@H]1O[C@@H]([S-])[C@H](OC(C)=O)[C@@H](OC(C)=O)[C@@H]1OC(C)=O.CCP(CC)CC.[Au+] [Auranofin] (2500 nM) | -37%
CS(=O)(=O)N1CCN(Cc2cc3nc(-c4cccc5[nH]ncc45)nc(N4CCOCC4)c3s2)CC1 [Pictilisib] (10000 nM) | 85.4%
O=C(NC[C@H](O)CO)c1ccncc1Nc1ccc(I)cc1F [Pimasertib] (10000 nM) | 81.8%
c1cc(CN2CCCNCCNCCCNCC2)ccc1CN1CCCNCCNCCCNCC1 [Plerixafor] (10000 nM) | 104%
Cn1cc(CNCC2CCN(c3ncc(C(=O)NO)cn3)CC2)c2ccccc21 [Quisinostat] (1000 nM) | 52.1%
CC[C@@]1(O)C(=O)OCc2c1cc1n(c2=O)Cc2cc3c(CN(C)C)c(O)ccc3nc2-1 [Topotecan] (10000 nM) | 69.8%

What follows are compounds tested on Hs578T in the same assay as above. Conditions: incubation time: 72 h.
Summary of the method: as §1

Compound | normalised response
Cc1c(Cn2c(C)nc3c(C(=O)O)cc(N4CCOCC4)cc32)cccc1C(F)(F)F (10000 nM) | 120%
CCCCC/C=C/C=C1/C(=O)C=C[C@@H]1C/C=C\CCCC(=O)O [15D-PGJ2] (800 nM) | 124%
CC(=O)OC[C@H]1O[C@@H]([S-])[C@H](OC(C)=O)[C@@H](OC(C)=O)[C@@H]1OC(C)=O.CCP(CC)CC.[Au+] [Auranofin] (2500 nM) | 79.6%
CS(=O)(=O)N1CCN(Cc2cc3nc(-c4cccc5[nH]ncc45)nc(N4CCOCC4)c3s2)CC1 [Pictilisib] (10000 nM) | 98.8%
O=C(NC[C@H](O)CO)c1ccncc1Nc1ccc(I)cc1F [Pimasertib] (10000 nM) | 105%
c1cc(CN2CCCNCCNCCCNCC2)ccc1CN1CCCNCCNCCCNCC1 [Plerixafor] (10000 nM) | 102%
Cn1cc(CNCC2CCN(c3ncc(C(=O)NO)cn3)CC2)c2ccccc21 [Quisinostat] (1000 nM) | 9.9%
CC[C@@]1(O)C(=O)OCc2c1cc1n(c2=O)Cc2cc3c(CN(C)C)c(O)ccc3nc2-1 [Topotecan] (10000 nM) | 102%

Each compound was assayed on MCF-10A in the same assay as above. Conditions: incubation time: 72 h.
Summary of the method: as §1

Compound | normalised response
Cc1c(Cn2c(C)nc3c(C(=O)O)cc(N4CCOCC4)cc32)cccc1C(F)(F)F (10000 nM) | 108%
CCCCC/C=C/C=C1/C(=O)C=C[C@@H]1C/C=C\CCCC(=O)O [15D-PGJ2] (800 nM) | 95.6%
CC(=O)OC[C@H]1O[C@@H]([S-])[C@H](OC(C)=O)[C@@H](OC(C)=O)[C@@H]1OC(C)=O.CCP(CC)CC.[Au+] [Auranofin] (2500 nM) | 76.2%
CS(=O)(=O)N1CCN(Cc2cc3nc(-c4cccc5[nH]ncc45)nc(N4CCOCC4)c3s2)CC1 [Pictilisib] (10000 nM) | 79.4%
O=C(NC[C@H](O)CO)c1ccncc1Nc1ccc(I)cc1F [Pimasertib] (10000 nM) | 95.4%
c1cc(CN2CCCNCCNCCCNCC2)ccc1CN1CCCNCCNCCCNCC1 [Plerixafor] (10000 nM) | 94.2%
Cn1cc(CNCC2CCN(c3ncc(C(=O)NO)cn3)CC2)c2ccccc21 [Quisinostat] (1000 nM) | 56.8%
CC[C@@]1(O)C(=O)OCc2c1cc1n(c2=O)Cc2cc3c(CN(C)C)c(O)ccc3nc2-1 [Topotecan] (10000 nM) | 55.5%

The compounds below were run on MDA-MB-231 in the same assay as above. Conditions: incubation time: 72 h.
Summary of the method: as §1

Compound | normalised response
Cc1c(Cn2c(C)nc3c(C(=O)O)cc(N4CCOCC4)cc32)cccc1C(F)(F)F (10000 nM) | 110%
CCCCC/C=C/C=C1/C(=O)C=C[C@@H]1C/C=C\CCCC(=O)O [15D-PGJ2] (800 nM) | 104%
CC(=O)OC[C@H]1O[C@@H]([S-])[C@H](OC(C)=O)[C@@H](OC(C)=O)[C@@H]1OC(C)=O.CCP(CC)CC.[Au+] [Auranofin] (2500 nM) | 13.3%
CS(=O)(=O)N1CCN(Cc2cc3nc(-c4cccc5[nH]ncc45)nc(N4CCOCC4)c3s2)CC1 [Pictilisib] (10000 nM) | 118%
O=C(NC[C@H](O)CO)c1ccncc1Nc1ccc(I)cc1F [Pimasertib] (10000 nM) | 70.1%
c1cc(CN2CCCNCCNCCCNCC2)ccc1CN1CCCNCCNCCCNCC1 [Plerixafor] (10000 nM) | 96%
Cn1cc(CNCC2CCN(c3ncc(C(=O)NO)cn3)CC2)c2ccccc21 [Quisinostat] (1000 nM) | -24.8%
CC[C@@]1(O)C(=O)OCc2c1cc1n(c2=O)Cc2cc3c(CN(C)C)c(O)ccc3nc2-1 [Topotecan] (10000 nM) | 46.1%

These compounds were tested on MDA-MB-436 in the same assay as above. Conditions: incubation time: 72 h.
Summary of the method: as §1

Compound | normalised response
Cc1c(Cn2c(C)nc3c(C(=O)O)cc(N4CCOCC4)cc32)cccc1C(F)(F)F (10000 nM) | 96.6%
CCCCC/C=C/C=C1/C(=O)C=C[C@@H]1C/C=C\CCCC(=O)O [15D-PGJ2] (800 nM) | 107%
CC(=O)OC[C@H]1O[C@@H]([S-])[C@H](OC(C)=O)[C@@H](OC(C)=O)[C@@H]1OC(C)=O.CCP(CC)CC.[Au+] [Auranofin] (2500 nM) | 84.1%
CS(=O)(=O)N1CCN(Cc2cc3nc(-c4cccc5[nH]ncc45)nc(N4CCOCC4)c3s2)CC1 [Pictilisib] (10000 nM) | 116%
O=C(NC[C@H](O)CO)c1ccncc1Nc1ccc(I)cc1F [Pimasertib] (10000 nM) | 100%
c1cc(CN2CCCNCCNCCCNCC2)ccc1CN1CCCNCCNCCCNCC1 [Plerixafor] (10000 nM) | 95.5%
Cn1cc(CNCC2CCN(c3ncc(C(=O)NO)cn3)CC2)c2ccccc21 [Quisinostat] (1000 nM) | 91.8%
CC[C@@]1(O)C(=O)OCc2c1cc1n(c2=O)Cc2cc3c(CN(C)C)c(O)ccc3nc2-1 [Topotecan] (10000 nM) | 29.1%

These compounds were tested on MDA-MB-453 in the same assay as above. Conditions: incubation time: 72 h.
Summary of the method: as §1

Compound | normalised response
Cc1c(Cn2c(C)nc3c(C(=O)O)cc(N4CCOCC4)cc32)cccc1C(F)(F)F (10000 nM) | 94.8%
CCCCC/C=C/C=C1/C(=O)C=C[C@@H]1C/C=C\CCCC(=O)O [15D-PGJ2] (800 nM) | 72.9%
CC(=O)OC[C@H]1O[C@@H]([S-])[C@H](OC(C)=O)[C@@H](OC(C)=O)[C@@H]1OC(C)=O.CCP(CC)CC.[Au+] [Auranofin] (2500 nM) | 28.8%
CS(=O)(=O)N1CCN(Cc2cc3nc(-c4cccc5[nH]ncc45)nc(N4CCOCC4)c3s2)CC1 [Pictilisib] (10000 nM) | 92%
O=C(NC[C@H](O)CO)c1ccncc1Nc1ccc(I)cc1F [Pimasertib] (10000 nM) | 112%
c1cc(CN2CCCNCCNCCCNCC2)ccc1CN1CCCNCCNCCCNCC1 [Plerixafor] (10000 nM) | 80.5%
Cn1cc(CNCC2CCN(c3ncc(C(=O)NO)cn3)CC2)c2ccccc21 [Quisinostat] (1000 nM) | 87.9%
CC[C@@]1(O)C(=O)OCc2c1cc1n(c2=O)Cc2cc3c(CN(C)C)c(O)ccc3nc2-1 [Topotecan] (10000 nM) | 85.1%

What follows are compounds tested on MDA-MB-468 in the same assay as above. Conditions: incubation time: 72 h.
Summary of the method: as §1

Compound | normalised response
Cc1c(Cn2c(C)nc3c(C(=O)O)cc(N4CCOCC4)cc32)cccc1C(F)(F)F (10000 nM) | 174%
CCCCC/C=C/C=C1/C(=O)C=C[C@@H]1C/C=C\CCCC(=O)O [15D-PGJ2] (800 nM) | 119%
CC(=O)OC[C@H]1O[C@@H]([S-])[C@H](OC(C)=O)[C@@H](OC(C)=O)[C@@H]1OC(C)=O.CCP(CC)CC.[Au+] [Auranofin] (2500 nM) | -35.6%
CS(=O)(=O)N1CCN(Cc2cc3nc(-c4cccc5[nH]ncc45)nc(N4CCOCC4)c3s2)CC1 [Pictilisib] (10000 nM) | 155%
O=C(NC[C@H](O)CO)c1ccncc1Nc1ccc(I)cc1F [Pimasertib] (10000 nM) | 169%
c1cc(CN2CCCNCCNCCCNCC2)ccc1CN1CCCNCCNCCCNCC1 [Plerixafor] (10000 nM) | 69.7%
Cn1cc(CNCC2CCN(c3ncc(C(=O)NO)cn3)CC2)c2ccccc21 [Quisinostat] (1000 nM) | 31.9%
CC[C@@]1(O)C(=O)OCc2c1cc1n(c2=O)Cc2cc3c(CN(C)C)c(O)ccc3nc2-1 [Topotecan] (10000 nM) | 29.5%

The compounds below were run on MFM-223 in the same assay as above. Conditions: incubation time: 72 h.
Summary of the method: as §1

Compound | normalised response
Cc1c(Cn2c(C)nc3c(C(=O)O)cc(N4CCOCC4)cc32)cccc1C(F)(F)F (10000 nM) | 82.5%
CCCCC/C=C/C=C1/C(=O)C=C[C@@H]1C/C=C\CCCC(=O)O [15D-PGJ2] (800 nM) | 106%
CC(=O)OC[C@H]1O[C@@H]([S-])[C@H](OC(C)=O)[C@@H](OC(C)=O)[C@@H]1OC(C)=O.CCP(CC)CC.[Au+] [Auranofin] (2500 nM) | 56.2%
CS(=O)(=O)N1CCN(Cc2cc3nc(-c4cccc5[nH]ncc45)nc(N4CCOCC4)c3s2)CC1 [Pictilisib] (10000 nM) | 56.4%
O=C(NC[C@H](O)CO)c1ccncc1Nc1ccc(I)cc1F [Pimasertib] (10000 nM) | 64.9%
c1cc(CN2CCCNCCNCCCNCC2)ccc1CN1CCCNCCNCCCNCC1 [Plerixafor] (10000 nM) | 96.9%
Cn1cc(CNCC2CCN(c3ncc(C(=O)NO)cn3)CC2)c2ccccc21 [Quisinostat] (1000 nM) | 66.2%
CC[C@@]1(O)C(=O)OCc2c1cc1n(c2=O)Cc2cc3c(CN(C)C)c(O)ccc3nc2-1 [Topotecan] (10000 nM) | 43.5%

These compounds were tested on BT-474 (assay: normalised response (% of control), CellTiter-Glo; higher = more viable cells (100 = DMSO, 0 = benzethonium chloride kill control)). Conditions: incubation time: 72 h.
Method: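 DSRT, 72 h incubation, CellTox Green / CellTiter-Glo readout. Signal is normalised to DMSO and benzethonium chloride controls. Value is the normalised response at the highest dose.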

Compound | normalised response
Cc1c(Cn2c(C)nc3c(C(=O)O)cc(N4CCOCC4)cc32)cccc1C(F)(F)F (10000 nM) | 94.5%
CCCCC/C=C/C=C1/C(=O)C=C[C@@H]1C/C=C\CCCC(=O)O [15D-PGJ2] (800 nM) | 95.4%
CC(=O)OC[C@H]1O[C@@H]([S-])[C@H](OC(C)=O)[C@@H](OC(C)=O)[C@@H]1OC(C)=O.CCP(CC)CC.[Au+] [Auranofin] (2500 nM) | 47.9%
CS(=O)(=O)N1CCN(Cc2cc3nc(-c4cccc5[nH]ncc45)nc(N4CCOCC4)c3s2)CC1 [Pictilisib] (10000 nM) | 50.6%
